Reference: patent US9969732B2, “Tetrahydroisoquinoline estrogen receptor modulators and uses thereof” (Genentech, Inc., priority 2016, dated 2018)

Biological target: T1, ER-alpha (WT) (Homo sapiens, UniProt P03372)
T1 construct: endogenous in cells; host or cells: MCF7 breast cancer cells
T1 sequence (P03372 1-595): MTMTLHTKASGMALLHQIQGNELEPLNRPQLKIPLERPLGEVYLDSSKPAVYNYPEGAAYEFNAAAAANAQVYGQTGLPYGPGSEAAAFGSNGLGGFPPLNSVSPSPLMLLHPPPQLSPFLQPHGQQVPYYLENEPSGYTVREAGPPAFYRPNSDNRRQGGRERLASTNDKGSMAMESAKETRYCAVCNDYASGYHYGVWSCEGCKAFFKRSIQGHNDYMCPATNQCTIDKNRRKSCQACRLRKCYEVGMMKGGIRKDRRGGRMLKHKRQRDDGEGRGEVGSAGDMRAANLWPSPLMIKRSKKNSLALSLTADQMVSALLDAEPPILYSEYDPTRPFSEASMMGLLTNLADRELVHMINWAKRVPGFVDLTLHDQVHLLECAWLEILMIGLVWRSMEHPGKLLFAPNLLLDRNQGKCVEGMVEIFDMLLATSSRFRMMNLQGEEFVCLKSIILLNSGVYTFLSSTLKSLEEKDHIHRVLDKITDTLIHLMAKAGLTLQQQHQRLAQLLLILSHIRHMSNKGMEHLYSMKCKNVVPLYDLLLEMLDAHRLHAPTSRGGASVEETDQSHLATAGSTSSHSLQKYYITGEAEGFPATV
Assay: Breast Cancer Cell ERa High Content Fluorescence Imaging Degradation Assay (MCF7 HCS)
Type: cell-based
Conditions: MCF7 breast cancer cells, 4 hours incubation; for EC50: inflexion point of curve; for ERalpha (WT) MCF7 HCS (S inf): plateau of the maximal effect, DMSO and Fulvestrant define 0% and 100% changes in ESR1

EC50 [pM] | ERalpha (WT) MCF7 HCS (S inf) [%] | Structure (SMILES)
960 | −101 | C[C@H]1Cc2cc(O)ccc2[C@H](c2ccc(OCCN3CC(CF)C3)cc2)N1CC(F)(F)CO [Example 165, (1S,3S)-2-(2,2-Difluoro-3-hydroxypropyl)-1-(4-(2-(3-(fluoromethyl)azetidin-1-yl)ethoxy)phenyl)-3-methyl-1,2,3,4-tetrahydroisoquinolin-6-ol]
66 | −105 | C[C@@H]1Cc2cc(O)ccc2[C@@H](c2ccc(OCCN3CC(CF)C3)cc2)N1CC(F)(F)CO [Example 166, (1R,3R)-2-(2,2-Difluoro-3-hydroxypropyl)-1-(4-(2-(3-(fluoromethyl)azetidin-1-yl)ethoxy)phenyl)-3-methyl-1,2,3,4-tetrahydroisoquinolin-6-ol]
140 | −99 | C[C@@H]1Cc2cc(CO)ccc2[C@@H](c2ccc(OCCN3CC(CF)C3)cc2)N1CC(F)(F)CO [Example 172, 2,2-Difluoro-3-((1R,3R)-1-(4-(2-(3-(fluoromethyl)azetidin-1-yl)ethoxy)phenyl)-6-(hydroxymethyl)-3-methyl-3,4-dihydroisoquinolin-2(1H)-yl)propan-1-ol]
> 100000 |  | CC(=O)c1ccc2c(c1)C[C@H](C)N(CC(F)(F)CO)[C@H]2c1ccc(OCCN2CC(CF)C2)cc1 [Example 176, 1-((1S,3S)-2-(2,2-Difluoro-3-hydroxypropyl)-1-(4-(2-(3-(fluoromethyl)azetidin-1-yl)ethoxy)phenyl)-3-methyl-1,2,3,4-tetrahydroisoquinolin-6-yl)ethanone]
> 100000 |  | C[C@H](O)c1ccc2c(c1)C[C@@H](C)N(CC(F)(F)CO)[C@@H]2c1ccc(OCCN2CC(CF)C2)cc1 [Example 178, 2,2-Difluoro-3-((1R,3R)-1-(4-(2-(3-(Fluoromethyl)azetidin-1-yl)ethoxy)phenyl)-6-((S)-1-hydroxyethyl)-3-methyl-3,4-dihydroisoquinolin-2(1H)-yl)propan-1-ol]
 | −73.5 | Oc1ccc2c(c1)CC[C@H](c1ccccc1)[C@@H]2c1ccc(OCCN2CCCC2)cc1 [lasofoxifene, (5R,6S)-6-phenyl-5-(4-(2-(pyrrolidin-1-yl)ethoxy)phenyl)-5,6,7,8-tetrahydronaphthalen-2-ol, reference compound]
